How the values were obtained:
[1] = Antiretroviral plasma trough levels before and during silibinin; format: in vivo, human
Experimental: Plasma samples obtained from HIV-HCV infected individuals were isolated by immediate centrifugation at 1850 X g (3000 rpm) and stored at -80°C. For the plasma quantification of antiretroviral drugs, samples were inactivated for virus at 60°C for 60 minutes. Plasma levels were determined by liquid chromatography coupled with tandem mass spectrometry (LC-MS/MS) after protein precipitation with acetonitrile according to our previously reported validated analytical method. The laboratory participates in an international external quality assurance program for antiretroviral drugs analysis (KKGT, Stichting Kwaliteitsbewaking Klinische Geneesmiddelanalyse en Toxicologie, Association for Quality Assessment in TDM and clinical Toxicology, The Hague, The Netherlands). Plasma trough levels for raltegravir (RAL), darunavir (DRV), atazanavir (ATV), and etravirine (ETV) were graphically extrapolated from measured concentrations, using population pharmacokinetic models previously published. Reference values for efavirenz (EFV) were adopted from a study from Marzolini et al.. The median trough concentrations for these agents in HIV-infected persons receiving the recommended dose are taken from the guidelines for the use of antiretroviral agents in HIV-1 infected adults and adolescents.
We used an intention-to-continue treatment approach to calculate virologic responses as percentage of patients with undetectable HCV-RNA, using all patients who started treatment as denominator. Plasma concentrations are presented as median (range). Two-tailed paired t-tests were conducted to detect difference in trough levels of antiretroviral drugs between pre- and post-administration of silibinin. GraphPad Prism 6 (GraphPad Software, La Jolla, CA) was used with an alpha of 0.05.

[2] = design: species or system human; details: in vivo; for Median Cmax (Range): human, iv, 20 mg/kg/day
Experimental: To measure silibinin plasma concentration, the plasma concentrations of silibinin isomers (A and B) and silibinin dihydrogen succinate isomers (A and B) were determined by LC/MS-MS. Of note, the range of plasma concentrations of the LC-MS/MS assay was selected according to the levels reported in the study from Sala et al. Briefly, 100 μl of plasma was added to 20 μl of internal standard naringenin (IS) and extracted by protein precipitation. After evaporation and reconstitution, 20 μL was injected into a Select- HSS T3 (2.1x75 mm, 3.5 μm) (Waters, Milford, MA, USA).
Chromatographic separations were performed using a gradient program with 10 mM ammonium formate containing 0.1% formic acid and acetonitrile with 0.1% formic acid. Analytes were quantified by electrospray ionization-triple quadrupole mass spectrometry using the selected reaction monitoring detection in the negative mode. Importantly, the selected gradient program allows adequate separation to quantify isomers A and B individually. The method has a mean inter-day coefficient of variation (CV) % of <10% and an inter-day deviation from nominal values of <7%.
Of note, the Cmin of isomer A of both silibinin dihydrogen succinate and silibinin were 2- and 7-fold higher than the corresponding values of isomer B [20].

[3] = plasma, paired t-test, ATV/r p = 0.89, RAL p = 0.90, ETV, EFV, DRV/r p = 0.14

O=C1Nc2ccc(Cl)cc2[C@@](C#CC2CC2)(C(F)(F)F)O1 [EFV, efavirenz]
trough level under silibinin coadministration (day 1 vs day 12) ([1]; in vivo): not influenced

COc1cc([C@H]2Oc3cc([C@H]4Oc5cc(O)cc(O)c5C(=O)[C@@H]4O)ccc3O[C@@H]2CO)ccc1O [Silibinin A]
Median Cmax (Range) [2]: 0.62 (0.29–1.07) μg/mL | Cmin of isomer A relative to isomer B [2]: 7 fold

darunavir/ritonavir [DRV/r]
trough level under silibinin coadministration (day 1 vs day 12) [1, 3]: not influenced

COc1cc(C2Oc3cc(C4Oc5cc(O)cc(O)c5C(=O)C4O)ccc3OC2CO)ccc1O (centres unmarked) [Silibinin B]
Median Cmax (Range) [2]: 0.25 (0.08–0.78) μg/mL

atazanavir/ritonavir [ATV/r]
trough level under silibinin coadministration (day 1 vs day 12) [1, 3]: not influenced

Cc1nnc(C(=O)NC(C)(C)c2nc(C(=O)NCc3ccc(F)cc3)c(O)c(=O)n2C)o1 [RAL, raltegravir]
trough level under silibinin coadministration (day 1 vs day 12) [1, 3]: not influenced

Cc1cc(C#N)cc(C)c1Oc1nc(Nc2ccc(C#N)cc2)nc(N)c1Br [ETV, etravirine]
trough level under silibinin coadministration (day 1 vs day 12) [1, 3]: not influenced

Source: publication PMC4503454, “A Lead-In with Silibinin Prior to Triple-Therapy Translates into Favorable Treatment Outcomes in Difficult-To-Treat HIV/Hepatitis C Coinfected Patients” (PLoS ONE, 2015)
